Laboratory results reported in EP2433624B1, “Use of buparvaquone for controlling mites parasitising honeybees” (Bimeda International Pharmaceuticals Limited, priority 2010, dated 2012).
Several values for one entry are separate records, joined by “and”; a condition that tells them apart may be missing. Equal values may be shown once. Read-outs that look alike come from different tables or passages of the source.

Legend:
Varroa mites [1] = experiment: Efficacy of BPQ B against Varroa mites on honeybees sprayed with an aqueous solution; format: in vivo; conditions: sprayed as an aqueous solution, preliminary
Protocol: (§1) Example 7 - Toxicity of BPQ B to Varroa mites on honeybees when sprayed with an aqueous solution of the active ingredient
To estimate the percentage efficacy of BPQ B at different concentrations when sprayed as an aqueous solution onto adult bees
(§2) A total of 20 newly emerged Varroa infested bees were placed in hoarding cages. The cages were prepared as described in Section 1.0, except that the air vents were reduced in size using parafilm to prevent the Varroa mites escaping during the test period. The mean(±se) number of mites per 20 bees was estimated prior to commencement and an additional 10 mites per cage were added. Mites were collected and introduced as described above. The treatment solution was made by dissolving BPQ B in solvent, followed by two aqueous serial dilutions producing a concentration of 500µg/mL and 5µg/mL. From the latter, further serial dilutions were carried in water producing the following concentrations: • 0.5µg/mL. (C1-C3) • 0.05µg/mL. (D1-D3) • 0.005µg/mL. (E1-E3) • 0.0005µg/mL. (F1-F3) • 0.00005µg/mL (G1-G3)
(§3) Three replicates were established at each concentration plus a control group which were sprayed with water only. All test groups were fed 10mL of 1:1 sucrose:water solution and placed in the incubator at 32°C and monitored on a daily basis for the number of mites and number of bees knocked down. At the end of five day treatment period, the percentage efficacy of the treatment was estimated by treating bees in all cages with Apistan. % efficacy = mites knocked from treatment/total mites (treatment+Apistan)*100 [formula]

honeybee larvae = experiment: Toxicity of BPQ B to honeybee larvae when fed treated syrup; format: in vivo, Apis mellifera; conditions: for Sealed cells / Young bees emerged: 40 cells
Excerpt: (§4) To measure the effect of treatment on developing larvae when fed syrup treated with BPQ powder, BPQ B, dissolved in the solvent (N-methyl pyrollidone) and diluted in an aqueous solution.
(§5) Apidae boxes were used to raise young queens and when virgin queens started to lay an area 6cm x 3cm were marked and missing cells were noted. The miniature colony was fed treated syrup, which was made by dissolving BPQ B powder in solvent, followed by serial dilutions using a sucrose solution (2 parts sugar: 1 part water). The concentrations administered are given below. Two replicates were carried out for the product, while 1 colony (apidae) was used for each of the solvent concentrations.

[2] = as above; format: in vivo, Apis mellifera; conditions: honeybee, in vivo, po, read-out: % Emergence
Excerpt: as §4, §5

honeybees [3] = experiment: Survival of bees sprayed with aqueous solutions of BPQ; format: in vivo, Apis mellifera; conditions: sprayed as an aqueous solution
Protocol: as §1, §2, §3

honeybees [4] = experiment: Bee survival in the test with BPQ B fed in sucrose solution; format: in vivo, Apis mellifera
Protocol: (§6) Example 6 - Toxicity of BPQ B to Varroa mites on honeybees when fed treated sucrose solution
(§7) A total of 20 newly emerged Varroa infested bees were placed in hoarding cages. The cages were prepared as described in Section 1.0, except that the air vents were reduced in size using parafilm to prevent the Varroa mites escaping during the test period. The mean(±se) number of mites per 20 bees was estimated prior to commencement of the experiment and an additional 5 mites per cage were added. (mean±se = 10.6±0.33). This was carried out by collecting adult female mite from drone pupae, placing them in an eppendorf tube and then releasing them into the cages.
(§8) The treatment solution was made by dissolving BPQ B in solvent, followed by two aqueous serial dilutions producing a concentration of 500µg/mL and 5 µg/mL. From the latter, further serial dilutions were carried with sucrose solution producing the following concentrations: • 0.5µg/mL. (C1-C3) • 0.05µg/mL. (D1-D3) • 0.005µg/mL. (E1-E3) • 0.0005µg/mL. (F1-F3) • 0.00005µg/mL (G1-G3)
Three replicates were established at each concentration plus a control group which were only fed sugar syrup. All cages were placed in the incubator at 32°C and monitored on a daily basis for the number of mites and number of bees knocked down. […]

Varroa mites [5] = experiment: Efficacy of BPQ B against Varroa mites on honeybees fed treated sucrose solution; format: in vivo
Protocol: as §6
To estimate the percentage efficacy of BPQ at different concentrations in sucrose solution
as §7, §8
Three replicates were established at each concentration plus a control group which were only fed sugar syrup. All cages were placed in the incubator at 32°C and monitored on a daily basis for the number of mites and number of bees knocked down. At the end of five day treatment period, the percentage efficacy of the treatment was estimated by treating bees in all cages with Apistan (Trade Mark of Vita (Europe) Ltd. Apistan contains fluvalinate which is a synthetic pyrethroid. % efficacy = mites knocked from treatment/total mites (treatment+Apistan)*100 [formula]

[6] = 0.00005µg/mL (g1) in sucrose fed to colony
[7] = 0.0005µg/mL (f1-f2) in sucrose fed to colony
[8] = 0.005µg/mL (e1-e2) in sucrose fed to colony
[9] = 0.05µg/mL (d1-d2) in sucrose fed to colony
[10] = 0.5µg/mL (c1-c2) in sucrose fed to colony
[11] = 0.00005µg/mL (g1-g3) in sucrose solution fed to 20 infested bees per cage

CC(C)(C)[C@H]1CC[C@H](CC2=C(O)C(=O)c3ccccc3C2=O)CC1 [BPQ B, buparvaquone]
mean minimum efficacy (Varroa mites [1]; treatment d (0.05µg/mL)): 28.4%
mean maximum efficacy (Varroa mites [1]; treatment g (0.00005µg/mL)): 46.2%
percentage efficacy against the Varroa mite (Varroa mites [1]): low
Sealed cells (honeybee larvae; [6]): 30
Young bees emerged (honeybee larvae; [6]): 30
% Emergence (honeybee larvae; [7]): 87.5%
Sealed cells (honeybee larvae; [7]): 32 and 30
Young bees emerged (honeybee larvae; [7]): 26 and 28
% Emergence (honeybee larvae; [8]): 86.5%
Sealed cells (honeybee larvae; [8]): 31 and 37
Young bees emerged (honeybee larvae; [8]): 28 and 32
% Emergence (honeybee larvae; [9]): 69.7%
Sealed cells (honeybee larvae; [9]): 30 and 29
Young bees emerged (honeybee larvae; [9]): 27 and 23
% Emergence (honeybee larvae; [10]): 93.9%
Sealed cells (honeybee larvae; [10]): 32 and 33
Young bees emerged (honeybee larvae; [10]): 30 and 31
toxicity for bee larvae (honeybee larvae; powder dissolved in NMP, diluted in water then sugar solution, any concentration): No toxicity
survival [2, 6]: 96.8%
survival [2, 7]: 70.3%
survival [2, 8]: 82.4%
survival [2, 9]: 81.8%
survival [2, 10]: 85.7%
toxicity to bees (honeybees [3]): very low
bee survival (honeybees [4]; fed in a sucrose solution, day 5): no negative effects
toxicity for bees (honeybees [4]; powder dissolved in NMP, diluted in water then sugar solution, tested over 5 days, any concentration): No toxicity
daily Varroa mite drop down, Day 4 (Varroa mites [5]; [11]): 0
daily Varroa mite drop down, Day 6 (Varroa mites [5]; [11]): 0
daily Varroa mite drop down, Day 2 (Varroa mites [5]; 0.0005µg/mL (f1-f3) in sucrose solution fed to 20 infested bees per cage): 7 and 9
effective in Varroa knockdown (Varroa mites [5]; 0.0005µg/mL, fed in sugar solution): > 80%
daily Varroa mite drop down, Day 5 (Varroa mites [5]; 0.05µg/mL (d1-d3) in sucrose solution fed to 20 infested bees per cage): 1
daily Varroa mite drop down, Day 6 (Varroa mites [5]; 0.5µg/mL (c1-c3) in sucrose solution fed to 20 infested bees per cage): 1 and 2
maximum efficacy (Varroa mites [5]; fed in a sucrose solution, treatment f (0.0005µg/mL), 5 day treatment): approximately 82%
minimum efficacy (Varroa mites [5]; fed in a sucrose solution, treatment g (0.00005µg/mL), 5 day treatment): 43.8%
